Source: publication PMC2764853, “Versatile Assays for High Throughput Screening for Activators or Inhibitors of Intracellular Proteases and Their Cellular Regulators” (PLoS ONE, 2009)
Residues, ends and D or L forms follow the SMILES beside them. *: point of attachment. Cbz = O=C(OCc1ccccc1)*; CH2F = FC*

Key:
[1] = tested on: Caspase8 activated with FADD + Fas; experiment: Yeast cleavable-reporter β-galactosidase assay, Fas/FADD/Caspase-8 three-component system (384 well); assay type: cell-based, human; details: for selectivity for Fas/FADD/Caspase-8 over Asc/Caspase-1 in yeast reporter assays: 384 well, various concentrations, 2–4 days at 30°C, OD620, counter-strains lacZ, Asc/Caspase-1, empty vector
Method: (§1) Figure 5 Validation of yeast-based assay using pharmacological inhibitor of Caspases. (A) Caspase-1, single component assay. EGY48 yeast cells expressing S1 substrate (TEF-Fas-d-S1-TA) and high levels of Caspase-1 (TEF-HA-Caspase1-FLAG) were incubated for 3 days in selection media (SD/X-gal) with the indicated concentrations of z-VAD-fmk in DMSO (•) or DMSO only (○), using 384-well plates. (B) Asc/Caspase-1 two-component system. EGY48 yeast cells expressing S1 substrate (TEF-Fas-d-S1-TA) a low level of pro-Caspase-1 (ΔTEF1-Caspase1-FLAG) and high levels of Asc (TEF-HA-Asc) were incubated for 3 days in the selection media (SD/X-gal) in 384 well plates with the indicated concentrations of calpeptin (▴) or z-VAD-fmk (•) or an equivalent volume of DMSO (○). (C) Fas/FADD/Caspase8 three-component system. EGY48 yeast cells expressing S8 substrate (TEF-S8-TA), low levels of pro-Caspase-8 CYC1-Caspase-8-HA, with a small amount of FADD (from ΔADH1 promoter) and a large amount of Fas (from ADH promoter), were incubated in selection media (SD/X-gal) with the indicated concentrations of calpeptin (▴) or z-VAD-fmk (•), or equivalent volume of DMSO (○), in 384-well plates for 3–4 days. For (A–C), relative absorbance at 620 nm was measured (mean ± std dev; n = 3−5 independent experiments). (* indicates p<0.001).
Figure 6 HTS Implementation of yeast-based, 3-component Caspase assays. (A) Validation of HTS assay for NLRP1-Asc-Caspase-1 system. Yeast cells (18 µl, typically at ≈2×10^5 cells/well) containing NLRP1ΔLRR/Asc/Caspase-1 were plated into wells of 384 well plates in media containing 1% galactose, 0.2% raffinose. Wells also contained 18 µL selection media with (blue squares) or without (purple diamonds) X-gal substrate (400 µg/mL final Concentration) plus 10% DMSO (4 µl) (to simulate compound addition). The plates were incubated for 72 hrs at 30°C and the OD620 was recorded. Values (mean±std dev) were calculated for the assay maximum and minimum. The Z' factor was calculated as described. (B) Example of library screening plate for NLRP1-Asc-Caspase-1. Yeast cells (typically at ≈2×10^5 cells/well) containing NLRP1/Asc/Caspase-1 were plated in 384 well plates in Selection Media, without (purple triangles) or with (all other wells) 400 µg/ml X-gal (final concentration). Compounds in DMSO (∼10 µM final) had been pre-added to wells (diamonds). The plates were incubated for 72 hrs at 30°C and the OD620 was recorded, “Hits” were defined by >50% reduction (as shown in green diamonds). […] Yeast cells containing Fas/FADD/Caspase-8 were cultured in 384 well plates as above with (blue squares) or without (purple diamonds) X-gal substrate, the plates were incubated for 72 hrs at 30°C and analyzed as above. […] Plates were incubated for 48 hrs at 30°C and OD620 values recorded. […]

[2] = tested on: Caspases; experiment: Yeast-based Caspase-dependent lacZ reporter gene assays, 384 well format (summary over assays); assay type: cell-based, human
Method: We further validated the 384 well assay format, using zVAD-fmk, a peptidyl inhibitor with broad-spectrum activity against animal Caspases. For some experiments, a Calpain inhibitor was employed in side-by-side experiments as a control. The broad-spectrum Caspase inhibitor zVAD-fmk inhibited β-galactosidase activity in a dose-dependent fashion, with the concentration required for achieving 50% inhibition ranging from ∼1–10 µM in these assays, which were performed in 384 well format (Figure 5) (Table S1). […] These experiments verify that the 384 well version of the yeast-based Caspase-dependent reporter gene assay faithfully indicates the activity of an inhibitory compound, thus fulfilling one of the prerequisites for developing HTS assays.
Figure 5 Validation of yeast-based assay using pharmacological inhibitor of Caspases. (A) Caspase-1, single component assay. EGY48 yeast cells expressing S1 substrate (TEF-Fas-d-S1-TA) and high levels of Caspase-1 (TEF-HA-Caspase1-FLAG) were incubated for 3 days in selection media (SD/X-gal) with the indicated concentrations of z-VAD-fmk in DMSO (•) or DMSO only (○), using 384-well plates. […] For (A–C), relative absorbance at 620 nm was measured (mean ± std dev; n = 3−5 independent experiments). […]
(§2) For caspase assays, the assays were performed in a total volume of 40 µl in triplicate. […] Absorbance at 620 nm was measured 2–3 days after culture at 30°C.

[3] = target: T1, Caspase6 (Homo sapiens, UniProt P55212); experiment: Yeast cleavable-reporter β-galactosidase assay, Caspase-6 (384 well); assay type: cell-based; details: yeast expressing Caspase6; 384 well β-galactosidase activity assay; read-out: IC50 for z-VAD inhibition of Caspases
T1 construct: We expressed full-length Caspases-1, 2, 3, 4, 5, 6, 7, and 9 from high copy-number plasmids; HA (N); expressed in transfected cells; host or cells: Saccharomyces cerevisiae (EGY48)
T1 sequence (P55212 24-179 limits assumed): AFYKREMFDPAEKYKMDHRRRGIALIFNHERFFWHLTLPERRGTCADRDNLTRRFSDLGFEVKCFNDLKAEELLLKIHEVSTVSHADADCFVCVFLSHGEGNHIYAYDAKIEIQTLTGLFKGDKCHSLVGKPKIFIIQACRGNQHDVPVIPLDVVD
T1 sequence (P55212 194-293 limits assumed): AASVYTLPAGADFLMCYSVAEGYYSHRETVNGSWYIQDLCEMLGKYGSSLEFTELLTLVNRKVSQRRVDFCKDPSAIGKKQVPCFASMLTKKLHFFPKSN
Method: (§3) For caspase assays, the assays were performed in a total volume of 40 µl in triplicate. First, 20 µl of liquid selection media containing X-gal and a series of concentrations of reagents such as z-VAD was dispensed into each well of 384-well plates. Next, confluent yeast cells expressing various Caspases and cleavable substrates were collected, washed with water, and suspended in selection media of the same volume as the culture media. The yeast suspension was diluted to 1∶5-10 (v:v) with the selection media, and 20 µl aliquots were added to the 384-well plates. For ATG4B assays, yeast cells expressing ATG4B and LC3 fused-transcription factor were cultured overnight in standard growth medium, then the yeast cells were diluted in selection medium (SD medium containing 1% galactose, 0.2% raffinose, BU salts, and 100 µg/ml X-gal) at 10^4/ml and dispensed 100 µl into each well of 384-well plates. Absorbance at 620 nm was measured 2–3 days after culture at 30°C.
(§4) Supplementary file pone.0007655.s002.pdf: Table S1 Determination of IC50 values for zVAD-fmk inhibition of Caspases in yeast. […] The compound was titrated into assays at various concentrations and percentage inhibition was determined. IC50 values were determined, using PRIZM software for analysis. […]

[4] = tested on: NLRP1/ASC/Caspase-1 proteolytic network; experiment: Yeast cleavable-reporter β-galactosidase assay, NLRP1/ASC/Caspase-1 three-component system (384 well); assay type: cell-based, human; details: 100 µM zVAD final, 2×10^5 cells/well, 48 hours, 400 µg/ml X-gal; Assay Max (DMSO) 0.78
Method: For the Fas/FADD/Caspase-8 and the NLRP1/Asc/Caspase-1 assays, EGY48 yeast containing the desired plasmids were streaked onto SD plates (6.8 g Yeast Nitrogen Base w/o amino acids, 20 mg arginine, 50 mg threonine, 30 mg isoleucine, 60 mg phenylalanine, 20 mg valine) containing agar (1.7%), supplemented with 2% α-D-glucose and 50 µg/mL leucine. The plates were incubated at 30°C for 48 hrs and a colony was picked and transferred to a 14 ml polypropylene tube containing 2 ml of SD media broth supplemented with α-D-glucose and leucine as above and grown at 30°C for 16–24 hrs with shaking. Then, 1 ml of the overnight culture was transferred into 20 mls of growth media in a 500 ml flask and shaken at 30°C for 16–24 hrs. […] After 48 hours, the plates were brought to room temperature, the breathable film removed and replaced with the transparent polyester tape seal, and the plates were mixed, pelleted briefly and read using a Beckman DTX 880, recording absorbance at 620 nm.
Supplementary file pone.0007655.s020.pdf: Figure S18 Determination of Z' scores for NLRP1(NALP1) and Fas(CD95) 3-component yeast-based HTS assays using caspase inhibitor zVAD-fmk. […] The Z' scores were determined by comparison of the DMSO-treated samples with the zVAD-treated samples. […]

[5] = target: Caspase9 activated with Apaf*; experiment: Yeast cleavable-reporter β-galactosidase assay, Apaf*/Caspase-9 (384 well); assay type: cell-based, human; details: 384 well β-galactosidase activity assay, read-out: IC50 for z-VAD inhibition of Caspases
Method: as §3, §4

[6] = target: Caspase1 activated with Asc; experiment: Yeast cleavable-reporter β-galactosidase assay, Asc/Caspase-1 two-component system (384 well); assay type: cell-based, human; details: 384 well β-galactosidase activity assay, read-out: IC50 for z-VAD inhibition of Caspases
Method: as §1, with “EGY48 yeast cells expressing S8 substrate (TEF-S8-TA), low levels of pro-Caspase-8 CYC1-Caspase-8-HA, with a small amount of FADD (from ΔADH1 promoter) and a large amount of Fas (from ADH promoter), were incubated in selection media (SD/X-gal) with the indicated concentrations of calpeptin (▴) or z-VAD-fmk (•), or equivalent volume of DMSO (○), in 384-well plates for 3–4 days.” left out, “(* indicates p<0.001).” left out
For caspase assays, the assays were performed in a total volume of 40 µl in triplicate. […] Absorbance at 620 nm was measured 2–3 days after culture at 30°C. […]
as §4

[7] = target: Caspase10 activated with FADD; experiment: Yeast cleavable-reporter β-galactosidase assay, FADD/Caspase-10 (384 well); assay type: cell-based, human; details: 384 well β-galactosidase activity assay, read-out: IC50 for z-VAD inhibition of Caspases
Method: as §3, §4

[8] = target: T2, Caspase1 (Homo sapiens, UniProt P29466); experiment: Yeast cleavable-reporter β-galactosidase assay, Caspase-1 single component (384 well); assay type: cell-based; details: yeast expressing Caspase1 alone at high levels; 384 well β-galactosidase activity assay; read-out: IC50 for z-VAD inhibition of Caspases
T2 construct: We expressed full-length Caspases-1, 2, 3, 4, 5, 6, 7, and 9 from high copy-number plasmids; HA (N); FLAG (C); expressed in transfected cells; host or cells: Saccharomyces cerevisiae EGY48
T2 sequence (P29466 120-297 limits assumed): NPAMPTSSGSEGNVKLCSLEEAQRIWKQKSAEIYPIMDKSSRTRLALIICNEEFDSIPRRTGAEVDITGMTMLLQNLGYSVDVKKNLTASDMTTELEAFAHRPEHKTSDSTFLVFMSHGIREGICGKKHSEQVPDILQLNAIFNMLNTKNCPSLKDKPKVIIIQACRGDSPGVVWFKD
T2 sequence (P29466 317-404 limits assumed): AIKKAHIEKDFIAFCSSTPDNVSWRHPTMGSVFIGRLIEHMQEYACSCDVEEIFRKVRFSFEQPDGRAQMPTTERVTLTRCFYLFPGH
Method: as §1, with “EGY48 yeast cells expressing S8 substrate (TEF-S8-TA), low levels of pro-Caspase-8 CYC1-Caspase-8-HA, with a small amount of FADD (from ΔADH1 promoter) and a large amount of Fas (from ADH promoter), were incubated in selection media (SD/X-gal) with the indicated concentrations of calpeptin (▴) or z-VAD-fmk (•), or equivalent volume of DMSO (○), in 384-well plates for 3–4 days.” left out, “(* indicates p<0.001).” left out
as §2, §4

SMILES: c1ccc2c(c1)[I+]c1ccccc1-2 [CID-3101]
- selectivity for Fas/FADD/Caspase-8 over Asc/Caspase-1 in yeast reporter assays [1]: selective inhibition of Fas-FADD-Caspase-8

SMILES: CCCC[C@@H](C=O)NC(=O)[C@H](CC(C)C)NC(=O)OCc1ccccc1 [Calpain inhibitor, calpeptin]
- suppression of activation of the lacZ reporter gene ([2]; control compound side-by-side with zVAD-fmk): did not suppress activation of the lacZ reporter gene

SMILES: C[n+]1cc2c3c(ccc2c2ccc4cc5c(cc4c21)OCO5)OCO3 [CID-5154]
- selectivity for Fas/FADD/Caspase-8 over Asc/Caspase-1 in yeast reporter assays [1]: selective inhibition of Fas-FADD-Caspase-8

SMILES: COC(=O)C[C@H](NC(=O)[C@H](C)NC(=O)[C@@H](NC(=O)OCc1ccccc1)C(C)C)C(=O)CF [zVAD-fmk] (Cbz-Val-Ala-Asp(OMe)-CH2F)
- IC50 [3]: 6.78 µM
- Assay Min (zVAD), absorbance OD620 [4]: 0.19
- IC50 [5]: 10.7 µM
- IC50 [6]: 1 µM
- IC50 ([2]; range over the yeast Caspase assays, dose-dependent, read-out: concentration required for achieving 50% inhibition of β-galactosidase activity): 1 to 10 µM
- IC50 [7]: 9.52 µM
- Assay Min (zVAD), absorbance OD620 ([1]; 100 µM zVAD final, 2×10^5 cells/well, 48 hours, 400 µg/ml X-gal, Assay Max (DMSO) 0.56): 0.20
- IC50 ([1]; yeast, Caspase8 activated with FADD + Fas, 384 well β-galactosidase activity assay, read-out: IC50 for z-VAD inhibition of Caspases): 5.42 µM
- IC50 [8]: 3.07 µM
